According to patent US20070117770A1, “Human ribosomal DNA (rDNA) and ribosomal RNA (rRNA) nucleic acids and uses thereof” (Cylene Pharmaceuticals, Inc., priority 2005, published 2007):

How the values were obtained:
Assay in all cases: Protein kinase inhibition assay
Type in all cases: biochemical
ZAP-70(h) = ZAP-70(h) (Homo sapiens, UniProt P43403); conditions: read-out: percent residual activity of ZAP-70(h)
Experimental: (§1) Certain compounds were tested for activity in protein kinase inhibition assays. All substrates were dissolved and diluted to working stocks in de-ionized water, apart from histone H1 (10× working stock in 20 mM MOPS pH 7.0), PDKtide (10× working stock in 50 mM Tris pH 7.0) ATF2 (which is typically stored at a 20× working stock in 50 mM Tris pH 7.5, 150 mM NaCl, 0.1 mM EGTA, 0.03% Brij-35, 50% glycerol, 1 mM benzamidine, 0.2 mM PMSF and 0.1% R-mercaptoethanol), KKLNRTLSFAEPG (SEQ ID NO:203) and RRRLSFAEPG (SEQ ID NO:204) (50 mM HEPES pH 7.4) and GGEEEEYFELVKKKK (SEQ ID NO:205) (20 mM MOPS pH 7.0). All kinases were pre-diluted to a 10× working concentration prior to addition into the assay. The composition of the dilution buffer for each kinase is detailed below.
In a final reaction volume of 25 μl, ZAP-70 (h) (5-10 mU) is incubated with 50 mM Tris pH 7.5, 0.1 mM EGTA, 0.1 mM Na3VO4, 0.1% R-mercaptoethanol, 0.1 mg/ml poly(Glu, Tyr) 4:1, 10 mM MnCl2, 10 mM MgAcetate and [gamma-33P-ATP] (specific activity approx. 500 cpm/pmol, concentration as required). The reaction is initiated by the addition of the MgATP mix. After incubation for 40 minutes at room temperature, the reaction is stopped by the addition of 5 μl of a 3% phosphoric acid solution. […]

CHK2(h) = CHK2(h) (Homo sapiens, UniProt O96017); conditions: read-out: percent residual activity of CHK2(h)
Experimental: as §1
In a final reaction volume of 25 μl, CHK2 (h) (5-10 mU) is incubated with 8 mM MOPS pH 7.0, 0.2 mM EDTA, 200 μM […] (SEQ ID NO:213), 10 mM MgAcetate and [gamma-33P-ATP] (specific activity approx. 500 cpm/pmol, concentration as required). The reaction is initiated by the addition of the MgATP mix. After incubation for 40 minutes at room temperature, the reaction is stopped by the addition of 5 μl of a 3% phosphoric acid solution. 10 μl of the reaction is then spotted onto a P30 filtermat and washed three times for 5 minutes in 75 mM phosphoric acid and once in methanol prior to drying and scintillation counting.

CDK5/p35(h) = CDK5/p35(h) (Homo sapiens, UniProt Q00535); conditions: read-out: percent residual activity of CDK5/p35(h)
Experimental: as §1
(§2) In a final reaction volume of 25 μl, CDK5/p35 (h) (5-10 mU) is incubated with 8 mM MOPS pH 7.0, 0.2 mM EDTA, 0.1 mg/ml histone H1, 10 mM MgAcetate and [gamma-33P-ATP] (specific activity approx. 500 cpm/pmol, concentration as required). The reaction is initiated by the addition of the MgATP mix. After incubation for 40 minutes at room temperature, the reaction is stopped by the addition of 5 μl of a 3% phosphoric acid solution. 10 μl of the reaction is then spotted onto a P30 filtermat and washed three times for 5 minutes in 75 mM phosphoric acid and once in methanol prior to drying and scintillation counting.

NEK7(h) = NEK7(h) (Homo sapiens, UniProt Q8TDX7); conditions: read-out: percent residual activity of NEK7(h)
Experimental: as §1
In a final reaction volume of 25 μl, NEK7 (h) (5-10 mU) is incubated with 8 mM MOPS pH 7.0, 0.2 mM EDTA, 300 μM FLAKSFGSPNRAYKK (SEQ ID NO:221), 10 mM MgAcetate and [gamma-33P-ATP] (specific activity approx. 500 cpm/pmol, concentration as required). The reaction is initiated by the addition of the MgATP mix. After incubation for 40 minutes at room temperature, the reaction is stopped by the addition of 5 μl of a 3% phosphoric acid solution. 10 pi of the reaction is then spotted onto a P30 filtermat and washed three times for 5 minutes in 75 mM phosphoric acid and once in methanol prior to drying and scintillation counting.

PKG1β(h) = PKG1β(h) (Homo sapiens, UniProt Q13976); conditions: read-out: percent residual activity of PKG1β(h)
Experimental: as §1
In a final reaction volume of 25 μl, PKG1β (h) (5-10 mU) is incubated with 8 mM MOPS pH 7.0, 0.2 mM EDTA, 10 μM cGMP, 200 μM RRRLSFAEPG (SEQ ID NO:223), 10 mM MgAcetate and [gamma-33P-ATP] (specific activity approx. 500 cpm/pmol, concentration as required). The reaction is initiated by the addition of the MgATP mix. After incubation for 40 minutes at room temperature, the reaction is stopped by the addition of 5 μl of a 3% phosphoric acid solution. […]

EGFR(L858R)(h) = EGFR(L858R)(h) (Homo sapiens, UniProt P00533, L858R); conditions: read-out: percent residual activity of EGFR(L858R)(h)
Experimental: as §1
as §2, with “EGFR (L858R)” for “CDK5/p35”, “poly(Glu, Tyr) 4:1,” for “histone H1,”, “Filtermat A” for “P30 filtermat”

Sequence of PKG1β(h) (Q13976 1-686 isoform Q13976-2): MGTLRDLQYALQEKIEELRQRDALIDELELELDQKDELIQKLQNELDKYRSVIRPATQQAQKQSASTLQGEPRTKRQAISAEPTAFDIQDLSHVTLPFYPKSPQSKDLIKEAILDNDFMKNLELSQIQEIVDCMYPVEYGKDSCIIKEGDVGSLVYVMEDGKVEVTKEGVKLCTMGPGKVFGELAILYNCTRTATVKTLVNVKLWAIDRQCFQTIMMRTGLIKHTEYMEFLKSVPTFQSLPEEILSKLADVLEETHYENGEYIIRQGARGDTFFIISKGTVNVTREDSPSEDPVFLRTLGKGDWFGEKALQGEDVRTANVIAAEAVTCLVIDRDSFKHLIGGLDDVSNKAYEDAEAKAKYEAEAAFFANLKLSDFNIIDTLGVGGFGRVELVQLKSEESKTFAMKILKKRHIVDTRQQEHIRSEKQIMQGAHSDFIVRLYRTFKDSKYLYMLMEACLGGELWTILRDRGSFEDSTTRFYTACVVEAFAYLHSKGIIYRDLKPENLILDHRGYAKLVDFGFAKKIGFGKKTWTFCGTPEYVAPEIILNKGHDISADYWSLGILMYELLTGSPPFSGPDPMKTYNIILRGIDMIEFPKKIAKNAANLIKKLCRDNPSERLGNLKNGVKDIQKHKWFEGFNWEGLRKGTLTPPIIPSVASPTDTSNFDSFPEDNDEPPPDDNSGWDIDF
Sequence of CHK2(h) (O96017 whole entry): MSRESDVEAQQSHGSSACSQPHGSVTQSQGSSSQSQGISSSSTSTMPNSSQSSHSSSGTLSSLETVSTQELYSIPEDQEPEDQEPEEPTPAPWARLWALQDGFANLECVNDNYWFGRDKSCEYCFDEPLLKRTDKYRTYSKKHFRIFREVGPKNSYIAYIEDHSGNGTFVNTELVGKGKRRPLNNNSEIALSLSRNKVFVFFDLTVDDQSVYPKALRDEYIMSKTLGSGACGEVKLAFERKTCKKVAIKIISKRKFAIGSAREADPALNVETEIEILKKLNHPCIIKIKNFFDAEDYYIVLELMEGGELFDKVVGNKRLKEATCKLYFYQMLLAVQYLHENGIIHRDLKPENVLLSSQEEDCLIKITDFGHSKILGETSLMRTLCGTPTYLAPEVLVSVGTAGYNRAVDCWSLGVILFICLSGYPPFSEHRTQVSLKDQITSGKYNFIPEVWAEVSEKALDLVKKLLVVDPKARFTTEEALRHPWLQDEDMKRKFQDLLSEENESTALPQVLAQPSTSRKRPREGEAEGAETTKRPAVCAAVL
Sequence of EGFR(L858R)(h) (P00533 25-1210 L858R): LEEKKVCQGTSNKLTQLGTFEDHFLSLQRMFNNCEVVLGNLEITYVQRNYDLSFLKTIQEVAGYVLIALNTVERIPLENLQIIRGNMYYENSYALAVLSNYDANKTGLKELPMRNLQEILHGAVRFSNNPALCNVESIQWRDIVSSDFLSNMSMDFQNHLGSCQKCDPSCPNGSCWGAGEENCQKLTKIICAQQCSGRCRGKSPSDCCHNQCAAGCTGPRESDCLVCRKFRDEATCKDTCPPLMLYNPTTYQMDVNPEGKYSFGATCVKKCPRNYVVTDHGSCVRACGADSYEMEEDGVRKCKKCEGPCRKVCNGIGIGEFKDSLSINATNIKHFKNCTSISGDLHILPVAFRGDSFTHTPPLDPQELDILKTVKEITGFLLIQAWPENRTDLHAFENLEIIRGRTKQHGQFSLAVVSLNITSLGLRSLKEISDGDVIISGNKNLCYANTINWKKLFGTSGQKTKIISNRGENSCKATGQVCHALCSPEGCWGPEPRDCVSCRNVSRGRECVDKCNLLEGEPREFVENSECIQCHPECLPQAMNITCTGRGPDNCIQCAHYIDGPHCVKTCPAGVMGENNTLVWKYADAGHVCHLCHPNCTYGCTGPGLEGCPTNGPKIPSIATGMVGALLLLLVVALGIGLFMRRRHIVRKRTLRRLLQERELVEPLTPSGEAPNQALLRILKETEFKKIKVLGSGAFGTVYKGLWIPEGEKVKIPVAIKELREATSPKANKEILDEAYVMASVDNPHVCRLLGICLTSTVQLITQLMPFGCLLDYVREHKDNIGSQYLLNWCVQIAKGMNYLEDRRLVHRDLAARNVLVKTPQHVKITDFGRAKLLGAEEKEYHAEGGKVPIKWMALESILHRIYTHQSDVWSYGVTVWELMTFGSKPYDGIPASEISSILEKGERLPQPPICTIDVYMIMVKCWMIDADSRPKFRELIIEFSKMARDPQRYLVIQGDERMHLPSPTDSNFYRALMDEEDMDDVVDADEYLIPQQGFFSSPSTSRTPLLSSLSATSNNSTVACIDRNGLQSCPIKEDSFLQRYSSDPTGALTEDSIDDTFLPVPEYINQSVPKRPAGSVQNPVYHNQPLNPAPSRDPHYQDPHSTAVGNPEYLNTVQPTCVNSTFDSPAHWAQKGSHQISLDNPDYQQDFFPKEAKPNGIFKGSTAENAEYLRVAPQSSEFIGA
Sequence of CDK5/p35(h) (Q00535 whole entry): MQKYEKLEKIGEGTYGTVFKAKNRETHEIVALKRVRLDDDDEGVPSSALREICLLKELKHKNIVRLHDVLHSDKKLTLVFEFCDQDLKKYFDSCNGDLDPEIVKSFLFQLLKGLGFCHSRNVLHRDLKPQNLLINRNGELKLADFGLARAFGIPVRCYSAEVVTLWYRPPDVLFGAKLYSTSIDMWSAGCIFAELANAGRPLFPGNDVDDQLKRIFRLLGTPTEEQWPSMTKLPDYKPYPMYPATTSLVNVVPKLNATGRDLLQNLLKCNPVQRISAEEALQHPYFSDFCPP
Sequence of CDK5/p35(h) (Q15078 whole entry partner): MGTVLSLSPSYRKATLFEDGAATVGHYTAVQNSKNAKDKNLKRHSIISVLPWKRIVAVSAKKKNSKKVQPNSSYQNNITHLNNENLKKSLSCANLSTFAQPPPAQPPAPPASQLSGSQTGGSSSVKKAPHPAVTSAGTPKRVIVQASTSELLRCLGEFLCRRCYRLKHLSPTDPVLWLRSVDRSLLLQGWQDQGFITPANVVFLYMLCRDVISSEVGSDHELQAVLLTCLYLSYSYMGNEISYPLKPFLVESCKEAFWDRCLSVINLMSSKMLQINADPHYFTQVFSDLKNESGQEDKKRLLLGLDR
Sequence of ZAP-70(h) (P43403 whole entry): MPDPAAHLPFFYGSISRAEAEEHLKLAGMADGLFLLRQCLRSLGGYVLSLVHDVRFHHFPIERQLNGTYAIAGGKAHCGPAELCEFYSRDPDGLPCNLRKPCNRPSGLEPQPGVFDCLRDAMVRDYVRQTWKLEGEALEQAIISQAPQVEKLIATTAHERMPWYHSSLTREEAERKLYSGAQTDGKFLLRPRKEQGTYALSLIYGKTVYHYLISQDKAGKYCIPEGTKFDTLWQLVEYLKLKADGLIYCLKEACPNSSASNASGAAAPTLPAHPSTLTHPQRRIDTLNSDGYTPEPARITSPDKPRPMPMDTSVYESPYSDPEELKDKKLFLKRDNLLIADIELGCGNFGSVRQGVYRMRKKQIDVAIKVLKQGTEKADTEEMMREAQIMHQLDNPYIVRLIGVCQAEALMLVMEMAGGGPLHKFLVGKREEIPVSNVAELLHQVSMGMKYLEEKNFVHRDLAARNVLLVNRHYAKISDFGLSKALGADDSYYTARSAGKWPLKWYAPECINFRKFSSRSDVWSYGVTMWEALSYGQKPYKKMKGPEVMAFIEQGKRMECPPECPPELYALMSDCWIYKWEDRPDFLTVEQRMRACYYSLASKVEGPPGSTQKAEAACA
Sequence of NEK7(h) (Q8TDX7 whole entry): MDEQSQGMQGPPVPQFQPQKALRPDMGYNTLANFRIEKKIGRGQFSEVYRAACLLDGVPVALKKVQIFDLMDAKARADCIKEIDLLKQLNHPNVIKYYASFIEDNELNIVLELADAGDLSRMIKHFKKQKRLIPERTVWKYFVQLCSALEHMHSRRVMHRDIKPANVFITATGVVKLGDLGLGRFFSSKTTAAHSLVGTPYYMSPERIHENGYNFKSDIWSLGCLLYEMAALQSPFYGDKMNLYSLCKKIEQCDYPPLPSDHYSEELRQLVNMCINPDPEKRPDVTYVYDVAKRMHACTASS

remaining activity at 2.5 µM (ZAP-70(h)) | remaining activity at 2.5 µM (CHK2(h)) | remaining activity at 2.5 µM (CDK5/p35(h)) | remaining activity at 2.5 µM (NEK7(h)) | remaining activity at 2.5 µM (PKG1β(h)) | remaining activity at 2.5 µM (EGFR(L858R)(h)) | Compound
130% | 62% | 83% | 102% | 48% | 113% | CN1CCCC1CCNC(=O)c1cn2c3c(c(N4CCC(c5cnccn5)C4)c(F)cc3c1=O)Oc1cc3ccccc3cc1-2 (stereo not drawn) [Compound A-1]
105% | 99% | 104% | 101% | 107% | 109% | CC(=O)N1CCN(c2ccc3c(=O)c(C(=O)NCCN4CCCC4)c4n(C)c5ccccc5n4c3n2)CC1 [Compound B-1]
